Laboratory results published in US12213985B2, “Oral cannabinoid formulations” (Jazz Pharmaceuticals Research UK Limited, priority 2016, dated 2025).
Where a SMILES comes first, the peptide text is derived from it.

What was measured:
[1] = Miscibility of alternative solvents with sesame oil; assay type: physicochemical; conditions: range of concentrations (0.5-10%) tested
[2] = Lowest ethanol concentration to solubilise Advantame, storage and observation for precipitation (ET03/015); assay type: physicochemical; conditions: Advantame 0.0025% w/v in sesame oil formulation
Experimental: An experiment (ET03/015) was carried out to determine the lowest ethanol concentration required to solubilise Advantame. Table 3 details the batches made with various ethanol concentrations ranging from 0.5% to 3.0% v/v.
These batches were stored at 25° C./60% RH and 40° C./75% RH for up to 4 weeks and observed for any signs of precipitation. There was no precipitation observed over the period assessed. Therefore it was concluded that Advantame can be used as a sweetener and can be solubilised at ethanol concentration of at least as low as 0.5% v/v. i.e. the concentration of ethanol required in the formulation can be reduced by a factor of 20 compared to a sucralose containing formulation.

[3] = derived from FDA website; cited from earlier work
[4] = Physical stability of Neotame formulations, open bottles standing 2 weeks; assay type: physicochemical
Experimental: The 25 mg/ml and 100 mg/ml batches were tested for physical stability by opening the bottles and allowing them to stand for 2 weeks to let the ethanol evaporate. This was done as a worst case in-use scenario where the bottle is repeatedly opened and closed multiple times during use. The batches were monitored for any signs of precipitation and the ethanol content measured.

Compound	Acceptable Daily Intake [3]	further results
CC(O)CO (centres unmarked) [propylene glycol]	–	miscibility with sesame oil [1]: not satisfactory
COC(=O)[C@H](Cc1ccccc1)NC(=O)[C@H](CC(=O)O)NCCCc1ccc(OC)c(O)c1 [Advantame, N—[N-3-(3-hydroxy-4-methoxyphenyl)propyl-α-L-aspartyl]-L-phenylalanine 1-methyl ester]	32.8 mg/kg/day	ethanol concentration at which the sweetener can be solubilised [2]: ≤ 0.5 % v/v
COC(=O)[C@H](Cc1ccccc1)NC(=O)[C@H](CC(=O)O)NCCC(C)(C)C [Neotame, N—[N-(3,3-dimethylbutyl)-L-α-aspartyl]-L-phenylalanine 1-methyl ester]	0.3 mg/kg/day	concentration at which Neotame can be physically solubilised ([4]; in ethanol): up to 0.01 % w/v; solubility in ethanol ([4]; room temperature): freely soluble
O.O.O=C1NS(=O)(=O)c2ccccc21 [Saccharin Dihydrate]	15 mg/kg/day	–
OC[C@H]1O[C@H](O[C@]2(CCl)O[C@H](CCl)[C@@H](O)[C@@H]2O)[C@H](O)[C@@H](O)[C@H]1Cl [Sucralose, reference compound]	5 mg/kg/day	–
OCC(O)CO [glycerin]	–	miscibility with sesame oil [1]: not satisfactory
O=C1NS(=O)(=O)c2ccccc21 [Saccharin]	15 mg/kg/day	–
COC(=O)[C@H](Cc1ccccc1)NC(=O)[C@@H](N)CC(=O)O [Aspartame] (H-Asp-Phe-OMe)	50 mg/kg/day	–
